{"source": "patent US6774086B2", "about": "“3-Aminocarbonyl-substituted benzoylcyclohexanediones” (Bayer CropScience GmbH, priority 2001, dated 2004)", "format_in_all_cases": "in vivo", "key": {"Stellaria media [1]": {"tested_on": "Stellaria media", "assay": "pre-emergence herbicidal action", "details": "320 g a.i./ha, scored visually after 3 to 4 weeks vs untreated controls", "source_text": "(§1) Seeds of mono- and dicotyledonous harmful plants are placed in sandy loam in cardboard pots and covered with soil. The compounds according to the invention, which are formulated in the form of wettable powders or emulsion concentrates, are then applied to the surface of the soil cover as aqueous suspension or emulsion at a dosage rate stated in table B1 with an application rate of 600 to 800 l of water per ha (converted). After the treatment, the pots are placed into a greenhouse and kept under good growth conditions for the harmful plants. The damage to the plants or their emergence is scored visually after the test plants have emerged after an experimental time of 3 to 4 weeks by comparison with untreated controls."}, "Amaranthus retroflexus [2]": {"tested_on": "Amaranthus retroflexus", "assay": "pre-emergence herbicidal action", "details": "320 g a.i./ha, scored visually after 3 to 4 weeks vs untreated controls", "source_text": "as §1"}, "Sinapis arvensis [3]": {"tested_on": "Sinapis arvensis", "assay": "pre-emergence herbicidal action", "details": "320 g a.i./ha, scored visually after 3 to 4 weeks vs untreated controls", "source_text": "as §1"}, "Monochoria vaginalis": {"tested_on": "Monochoria vaginalis", "assay": "post-emergence action against harmful plants", "description": "(§2) Seeds of mono- and dicotyledonous harmful plants are placed in sandy loam in cardboard pots, covered with soil and grown in the greenhouse under good growth conditions. 2 to 3 weeks after sowing, the test plants are treated in the three-leaf stage. The compounds according to the invention, which are formulated as wettable powders or as emulsion concentrates, are sprayed at a dosage rate stated in table B2 to the surface of the green plant parts at an application rate of 600 to 800 l of water per ha (converted). After the test plants have been left to stand in the greenhouse for approx. 3 to 4 weeks under optimal growth conditions, the effect of the compounds is scored by comparison with compounds of the prior art.\n(§3) In further greenhouse experiments, seeds of barley and of monocotyledonous and dicotyledonous harmful plants are placed in sandy loam, covered with soil and placed in the greenhouse until the plants have developed two to three true leaves. Then, they are treated with the compounds of the formula (I) according to the invention as described above under item 2."}, "Cyperus serotinus": {"tested_on": "Cyperus serotinus", "assay": "post-emergence action against harmful plants", "description": "as §2, §3"}, "Sagittaria pygmaea": {"tested_on": "Sagittaria pygmaea", "assay": "post-emergence action against harmful plants", "description": "as §2, §3"}, "Stellaria media [4]": {"tested_on": "Stellaria media", "assay": "post-emergence herbicidal action", "details": "three-leaf stage, 320 g a.i./ha, scored after approx. 3 to 4 weeks", "description": "as §2"}, "Amaranthus retroflexus [5]": {"tested_on": "Amaranthus retroflexus", "assay": "post-emergence herbicidal action", "details": "three-leaf stage, 320 g a.i./ha, scored after approx. 3 to 4 weeks", "description": "as §2"}, "Sinapis arvensis [6]": {"tested_on": "Sinapis arvensis", "assay": "post-emergence herbicidal action", "details": "three-leaf stage, 320 g a.i./ha, scored after approx. 3 to 4 weeks", "description": "as §2"}, "Oryza sativa": {"tested_on": "Oryza sativa", "assay": "post-emergence action, crop plant damage"}}}
{"smiles": "CN(C(=O)COc1c(S(C)(=O)=O)ccc(C(=O)C2=C(O)CCCC2=O)c1Cl)c1ccccc1", "note": "[Compound 1.28]", "values": [{"measurement": "Action against harmful plants STEME", "setting": "Stellaria media [1]", "result": 90, "unit": "%"}, {"measurement": "Action against harmful plants AMARE", "setting": "Amaranthus retroflexus [2]", "result": 90, "unit": "%"}, {"measurement": "Action against harmful plants SINAL", "setting": "Sinapis arvensis [3]", "result": 90, "unit": "%"}]}
{"smiles": "CCN(CC)C(=O)COc1c(Cl)ccc(C(=O)C2=C(O)CCCC2=O)c1Cl", "note": "[Compound 3.9]", "values": [{"measurement": "Action against harmful plants MOOVA", "setting": "Monochoria vaginalis; 90 g a.i./ha", "result": 95, "unit": "%"}, {"measurement": "Action against harmful plants CYPSE", "setting": "Cyperus serotinus; 90 g a.i./ha", "result": 95, "unit": "%"}, {"measurement": "Action against harmful plants SAGPY", "setting": "Sagittaria pygmaea; 90 g a.i./ha", "result": 90, "unit": "%"}, {"measurement": "Action against harmful plants STEME", "setting": "Stellaria media [4]", "result": 100, "unit": "%"}, {"measurement": "Action against harmful plants AMARE", "setting": "Amaranthus retroflexus [5]", "result": 80, "unit": "%"}, {"measurement": "Action against harmful plants SINAL", "setting": "Sinapis arvensis [6]", "result": 90, "unit": "%"}, {"measurement": "Action against harmful plants STEME", "setting": "Stellaria media [1]", "result": 90, "unit": "%"}, {"measurement": "Action against harmful plants AMARE", "setting": "Amaranthus retroflexus [2]", "result": 90, "unit": "%"}, {"measurement": "Action against harmful plants SINAL", "setting": "Sinapis arvensis [3]", "result": 80, "unit": "%"}, {"measurement": "Crop plant damage ORYSP", "setting": "Oryza sativa; 90 g a.i./ha", "result": 0, "unit": "%"}]}
{"smiles": "CCN(CC)C(=O)COc1c(Br)ccc(C(=O)C2=C(O)CCCC2=O)c1Br", "note": "[Compound 3.65]", "values": [{"measurement": "Action against harmful plants MOOVA", "setting": "Monochoria vaginalis; 50 g a.i./ha", "result": 99, "unit": "%"}, {"measurement": "Action against harmful plants CYPSE", "setting": "Cyperus serotinus; 50 g a.i./ha", "result": 99, "unit": "%"}, {"measurement": "Action against harmful plants SAGPY", "setting": "Sagittaria pygmaea; 50 g a.i./ha", "result": 80, "unit": "%"}, {"measurement": "Action against harmful plants STEME", "setting": "Stellaria media [4]", "result": 100, "unit": "%"}, {"measurement": "Action against harmful plants AMARE", "setting": "Amaranthus retroflexus [5]", "result": 80, "unit": "%"}, {"measurement": "Action against harmful plants SINAL", "setting": "Sinapis arvensis [6]", "result": 90, "unit": "%"}, {"measurement": "Action against harmful plants STEME", "setting": "Stellaria media [1]", "result": 90, "unit": "%"}, {"measurement": "Action against harmful plants AMARE", "setting": "Amaranthus retroflexus [2]", "result": 90, "unit": "%"}, {"measurement": "Action against harmful plants SINAL", "setting": "Sinapis arvensis [3]", "result": 80, "unit": "%"}, {"measurement": "Crop plant damage ORYSP", "setting": "Oryza sativa; 50 g a.i./ha", "result": 0, "unit": "%"}]}
